Test results taken from PubChem BioAssay (NCI).
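Cells were grown in 96-well plates and exposed to each compound for 48 hours at five concentrations; endpoints were interpolated linearly between bracketing concentrations, or set to the highest concentration if not reached. GI50 marks 50% less growth. Definition used: TGI = concentration required for complete inhibition of growth.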

Columns and labels:
Assay in all cases: NCI-60 cell line screen, 48 h
A498 renal = test system: A498 renal
NCI-H522 lung = test system: NCI-H522 lung
U251 CNS = test system: U251 CNS
HCT-116 colon = test system: HCT-116 colon
RPMI-8226 leukemia = test system: RPMI-8226 leukemia
SR leukemia = test system: SR leukemia
UACC-62 melanoma = test system: UACC-62 melanoma
M14 melanoma = test system: M14 melanoma
SK-MEL-5 melanoma = test system: SK-MEL-5 melanoma
CCRF-CEM leukemia = test system: CCRF-CEM leukemia

SMILES | TGI (A498 renal) [µM] | TGI (NCI-H522 lung) [µM] | TGI (U251 CNS) [µM] | TGI (HCT-116 colon) [µM] | TGI (RPMI-8226 leukemia) [µM] | TGI (SR leukemia) [µM] | TGI (UACC-62 melanoma) [µM] | TGI (M14 melanoma) [µM] | TGI (SK-MEL-5 melanoma) [µM] | TGI (CCRF-CEM leukemia) [µM] | GI50 (A498 renal) [µM] | GI50 (NCI-H522 lung) [µM] | GI50 (U251 CNS) [µM] | GI50 (HCT-116 colon) [µM] | GI50 (RPMI-8226 leukemia) [µM] | GI50 (SR leukemia) [µM] | GI50 (UACC-62 melanoma) [µM] | GI50 (SK-MEL-5 melanoma) [µM] | GI50 (CCRF-CEM leukemia) [µM] | GI50 (M14 melanoma) [µM]
CC(C)(C)c1cc(Cc2ccc(S(C)(=O)=O)cc2)c(O)c(C(C)(C)C)c1 | 30.3 | 24.9 | 28.7 | 27 | 25.8 | 29.5 | 26 | 28.9 | 30 | 30.5 | – | – | – | – | – | – | – | – | – | –
COC(=O)NC1=Nc2ccccc2C(=O)NN1 | > 100 | > 100 | > 100 | > 100 | > 100 | > 100 | > 100 | > 100 | > 100 | > 100 | – | – | – | – | – | – | – | – | – | –
O=C(Nc1ccc(Nc2ccc(NC(=O)c3ccccc3)c3c2C(=O)c2ccccc2C3=O)c2c1C(=O)c1ccccc1C2=O)c1ccccc1 | > 100 | > 100 | > 100 | > 100 | > 100 | > 100 | > 100 | > 100 | > 100 | > 100 | – | – | – | – | – | – | – | – | – | –
C=CCc1cc(O)ccc1O | > 100 | 11.1 | > 100 | 31.1 | 34.1 | > 100 | > 100 | – | > 100 | 14.5 | > 100 | 2.49 | 36.4 | 16.8 | 2.6 | 9.14 | 25.2 | 43.3 | 2.34 | –
O=C1CCC2(c3ccccc3)OCC([C@@H](O)c3ccccc3)N12 (stereo not given in full) | > 100 | – | > 100 | > 100 | > 100 | > 100 | > 100 | – | > 100 | > 100 | – | – | – | – | – | – | – | – | – | –
C=C(CC)C(=O)c1ccc(OCC(=O)O)c(Cl)c1Cl | > 100 | 29.6 | 29.7 | > 55.1 | > 100 | > 100 | 30.3 | 45 | > 55.7 | > 76.3 | – | – | – | – | – | – | – | – | – | –
Nc1nc(N)c2c(Cl)c(CNc3ccc(Cl)c(Cl)c3)ccc2n1 | 8.68 | 9.56 | 11.2 | 12.4 | 12.5 | 7.36 | 13.7 | 3.87 | 4.65 | 12.1 | – | – | – | – | – | – | – | – | – | –
CCc1nc(N)nc(N)c1-c1ccc(N2CCNCC2)c([N+](=O)[O-])c1 | > 100 | > 100 | > 100 | > 100 | > 100 | > 100 | > 100 | 31.9 | 28.3 | > 72.1 | – | – | – | – | – | – | – | – | – | –
c1ccc(-c2sc(-c3ccccc3)c3c2C(c2ccccc2)c2c(-c4ccccc4)sc(-c4ccccc4)c2C3c2ccccc2)cc1 (stereo not given) | > 100 | > 100 | > 100 | > 100 | > 100 | > 100 | > 100 | > 100 | > 100 | > 100 | – | – | – | – | – | – | – | – | – | –
O=C1CC[C@@H](S(=O)(=O)c2ccccc2)[C@H](/C=C/c2ccccc2)O1 | > 100 | > 100 | > 100 | > 100 | > 100 | > 100 | > 100 | > 100 | > 100 | > 100 | – | – | – | – | – | – | – | – | – | –
Nc1nc2c(ncn2C2OC(CO)C(O)C2O)c(=O)o1 (stereo not given) | > 100 | > 100 | > 100 | > 100 | > 100 | > 100 | > 100 | > 100 | > 100 | > 100 | – | – | – | – | – | – | – | – | – | –
Cn1ccc(S(=O)(=O)N2CCC[C@H](Nc3nccc(-c4c(-c5cccc(O)c5)nc5occn45)n3)C2)n1 | 26.1 | 36.4 | > 100 | 32.4 | 46.4 | 46.2 | 3.4 | 13.9 | 18.6 | > 100 | 6.8 | 13 | 22.3 | 3.93 | 14.9 | 8.19 | 0.0643 | 3.51 | 4.47 | 0.112
N=C1C(c2nc3ccccc3c(=O)[nH]2)=C(O)CN1c1cccc(Cl)c1 | 17.1 | > 100 | > 50 | > 100 | 6.37 | 2.68 | > 100 | > 100 | 7.55 | > 100 | 1.9 | 4.57 | 2.22 | 2.79 | 2.15 | 0.302 | 3.27 | 1.26 | 2.88 | 5.26
CCN1C[C@@H](C)n2c(c(O)c3c(=O)n(Cc4ccc(F)c(Cl)c4)nc(C(=O)NC)c32)C1=O | 4.55 | 9.47 | – | > 100 | 7.37 | 14.8 | – | 39.5 | 4.49 | > 100 | 1.43 | 2.95 | – | 3.21 | 2.59 | 3.22 | – | 1.98 | 3.57 | 3.64
Oc1ccc(/C=N/NC(=S)Nc2ccccc2)nc1 | > 100 | 39.8 | 81.8 | > 100 | > 100 | > 100 | 4.95 | – | 3.36 | > 100 | 3 | 1.94 | 0.65 | 1.42 | 3.44 | 0.582 | 1.55 | 0.754 | 0.938 | –
N#Cc1c(-c2ccccc2)nc(SCC(O)CN2CCOCC2)nc1N1CCOCC1 (stereo not given) | 23 | > 100 | > 100 | > 100 | 41.6 | > 100 | > 100 | > 100 | 47.9 | > 100 | 2.43 | 18.3 | 24.4 | 32.4 | 7.78 | 32.2 | 3.55 | 2.99 | 88 | 50
CCOC(=O)C(Cc1ccccc1)n1c(O)c(/C=N/c2ncc(Cc3ccc(Cl)cc3Cl)s2)sc1=S (stereo not given) | 7.64 | 5.7 | 15 | 11.5 | > 100 | > 100 | 6.37 | 16.7 | 4.13 | > 100 | 1.58 | 1.31 | 2.51 | 2.03 | 2.12 | 3.98 | 1.63 | 1.52 | 1.87 | 3.02
